Test results as given in article PMC10481538, “Bioanalytical method validation and application to a phase 1, double-blind, randomized pharmacokinetic trial of a standardized Centella asiatica (L.) Urban water extract product in healthy older adults” (Frontiers in Pharmacology, 2023).
“Also recorded” adds a separate entry of the source. Where two headings read alike, the source gives them in different places.

What was measured:
[1] = Analyte storage stability in human plasma
Method: (§5) Analytes were mixed with 50 µL of charcoal treated plasma (n = 5) or urine (n = 5) and placed in each of the following storage conditions: 1) long-term storage (two weeks at −80°C); 2) three freeze-thaw cycles during a two-week period stored at −80°C; 3) 4°C for 24 h; and 4) fresh preparation for same day analysis. All samples were processed together for analysis. Calibration curves generated from storage condition 4 samples were used to determine the concentration of analyte present in each storage condition. The percent difference from samples in condition 4 was used to determine stability.

[2] = Analyte storage stability in human urine
Method: as §5

[3] = Phase 1 pharmacokinetic trial of CAP, plasma analysis by HPLC-MS/MS; conditions: for AUC(0-t): AUC(0-12)
Method: (§1) To each sample of participant plasma or urine, A. aerogenes sulfatase (2.5 µL; 10–20 units/mL), and E. coli glucuronidase (2.5 µL; ∼5,000–50,000 units/mL) were used to release the analytes from their sulfate and β-D-glucuronic acid esters (Phase II metabolites). For calibration and validation samples, aqueous glycerol (5 µL) was added to mimic the enzymatic hydrolysis. For all analyses, 1% ascorbic acid (10 µL) was added prior to sample work up to limit oxidation. Samples were incubated (37°C) for 20 min and placed on ice to halt enzymatic activity. […] The supernatant was filtered (0.22 µm spinfilter) at 10,000 g for 5 min at 4°C and used for analysis. To optimize peak shape during analysis, the concentration of organic solvent (sample filtrate) was adjusted to a 60:40 ratio with HPLC grade water for TT analysis and a 90:10 ratio with 1% aqueous formic acid for CQA analysis.
(§2) HPLC-MS/MS was performed at the Oregon Health & Science University’s (OHSU) Bioanalytical Shared Resource/Pharmacokinetics Core (Portland, OR, United States). […] Chromatographic separation was achieved using a Poroshell 120 EC18 column (3 mm id × 50 mm; 2.7 µ) and a Poroshell ultra high-performance liquid chromatography (UHPLC) guard column (3.0 mm i.d. Å∼ 5 mm, 2.7 μ) (Agilent, Santa Clara, CA, United States). The injection volume was 20 μL and flow rate was 0.42 mL/min. Gradient elution was performed using a mobile phase of solvent A (water containing 10 mM ammonium acetate and 0.02% ammonium hydroxide; pH 8.5) and solvent B (methanol). […] Chromatographic separation was achieved using a Zorbax Eclipse plus C8 Rapid resolution (4.6 i.d. Å∼ 150 mm, 3.5 μ) column with a Zorbax Eclipse plus C8 Rapid resolution (4.6 i.d. Å∼ 12.5 mm, 5 μ) guard column (Agilent, Santa Clara, CA, United States). The injection volume was 5 μL and flow rate of 0.8 mL/min. Gradient elution was performed using a mobile phase of solvent A (water containing 0.05% v/v acetic acid) and solvent B (acetonitrile with 0.05% v/v acetic acid).
(§3) Briefly, two in-person study visits occurred a minimum of two weeks and a maximum of four weeks apart in which participants orally consumed 2 or 4 g of CAP (in a randomized order) on an empty stomach. Total study duration was eight weeks including follow-up adverse event monitoring. All study procedures were identical for each visit except for the CAP dose administered. Randomization (to prevent tolerance effects) was performed using an arm equivalence design by the OHSU Research Pharmacy. All study personnel were blind to randomization allocation until all data analysis had been finalized. […] Participants fasted for 10 h, excluding water, prior to each study visit and for 2 h after consuming the study intervention to standardize gastrointestinal transit time and minimize food effects. During study visits, participants were provided low-phytochemical snacks and meals by the OCTRI CTRC’s Bionutrition Unit devoid of the foods outlined in Section 2.5. At each study visit, a peripheral intravenous catheter was placed in the arm to allow for repeat blood sampling. Prior to CAP intake, 20 mL of baseline blood and 50 mL of baseline urine were collected. […] Plasma aliquots (2 mL) were frozen and stored at -80°C until analysis. […] A 50 mL aliquot was retained and frozen at −80°C for renal excretion analysis.
(§4) Sample preparation and analysis: Plasma and urine sample preparation and analyte quantification by LC-MS/MS were performed in duplicate for each time point and visit (Sections 2.2–2.4). Due to the possibility of residual interference from the participant’s diet and unique, individual matrix effects, calibration curves were generated for each participant using their baseline plasma collected at the corresponding visit.

[4] = n = 7, mean (SEM)
Method: as §1, §2, §3, §4

[5] = encapsulated ECa 233, healthy adults; ref Songvut et al., 2019; cited from earlier work
[6] = condition 1 long-term storage at -80°C, low concentration
[7] = condition 1 long-term storage at −80°C, low concentration
[8] = single oral 2 g CAW (CAP), n = 7, mean (SEM)
[9] = single oral 4 g CAW (CAP), n = 7, mean (SEM)
[10] = condition 1 long-term storage at −80°C, medium concentration
[11] = condition 2 freeze-thaw, medium concentration
[12] = condition 2 freeze-thaw, low concentration
[13] = both, human, plasma, po, 2 g, single oral 2 g CAW (CAP), n = 7, mean (SEM)
[14] = both, human, plasma, po, 2 g, Cmax, single oral 2 g CAW (CAP), healthy older adults, n = 7, plasma, mean (SEM), ^ = below LLoQ
[15] = both, human, plasma, po, 2 g, T1/2, single oral 2 g CAW (CAP), n = 7, mean (SEM)
[16] = both, human, plasma, po, 2 g, Tmax, single oral 2 g CAW (CAP), n = 7, mean (SEM)
[17] = both, human, plasma, po, 4 g, single oral 4 g CAW (CAP), n = 7, mean (SEM)
[18] = both, human, plasma, po, 4 g, Cmax, single oral 4 g CAW (CAP), healthy older adults, n = 7, plasma, mean (SEM), ^ = below LLoQ
[19] = both, human, plasma, po, 4 g, T1/2, single oral 4 g CAW (CAP), n = 7, mean (SEM)
[20] = both, human, plasma, po, 4 g, Tmax, single oral 4 g CAW (CAP), n = 7, mean (SEM)
[21] = condition 2 three freeze-thaw cycles, low concentration
[22] = condition 3 4°C for 24 h, medium concentration
[23] = condition 3 overnight storage at 4°C, low concentration
[24] = condition 2 three freeze-thaw cycles, medium concentration

| Compound | Stability, percent of nominal concentration [1, 6] [%] | Stability, percent of nominal concentration [2, 7] [%] | Total urinary excretion (12 hr) ([4]; single oral 2 g CAW (CAP)) | Total urinary excretion (12 hr) ([4]; single oral 4 g CAW (CAP)) | Stability, percent of nominal concentration [2, 10] [%] | Stability, percent of nominal concentration [2, 11] [%] | AUC(0-t) [3, 13] [ng·h/mL] | Cmax [3, 14] [ng/mL] | half-life [3, 15] [h] | Tmax [3, 16] [h] | AUC(0-t) [3, 17] [ng·h/mL] | Cmax [3, 18] [ng/mL] | half-life [3, 19] [h] | further results |
| --- | --- | --- | --- | --- | --- | --- | --- | --- | --- | --- | --- | --- | --- | --- |
| COc1cc(/C=C/C(=O)O)ccc1O [FA, ferulic acid] | 129 | 81 | 146.8 (33.5) µg | 137.4 (24.6) µg |  |  |  |  |  |  |  |  |  | Cmax ([3]; single oral 2 g CAW (CAP), healthy older adults, n = 7, plasma, mean (SEM), ^ = below LLoQ): 1.5 (0.3) ng/mL; AUC(0-12) [3, 8]: 11.3 (2.9) ng/mL*hr; T1/2 [3, 8]: 14.1 (3.9) hr; Tmax [3, 8]: 5.9 (1.3) hr; Cmax ([3]; single oral 4 g CAW (CAP), healthy older adults, n = 7, plasma, mean (SEM), ^ = below LLoQ): 1.5 (0.6) ng/mL; AUC(0-12) [3, 9]: 9.9 (2.8) ng/mL*hr; T1/2 [3, 9]: 2.9 (1.3) hr; Tmax [3, 9]: 7.1 (1.2) hr |
| madecassoside [MS] |  | 57 | Not detected | Not detected | 84 | 78 |  |  |  |  |  |  |  | Tmax [5]: 1 to 2 h; Stability, percent of nominal concentration ([2]; condition 2 freeze-thaw, high concentration): 82%; Detection in plasma ([3]; after 2 or 4 g CAP, oral): not detected; also recorded: below the LoD |
| O=C(O)CCc1cccc(O)c1 [HPP, 3-(3-hydroxyphenyl) propionic acid] |  | 48 | 223.4 (76.7) µg | 247.9 (73.6) µg | 81 |  | 56.8 | 5.8 | 5 | 7.4 | 50.2 | 10.6 | 2.6 | Stability, percent of nominal concentration [2, 12]: 96%; Tmax [3, 20]: 5.7 h |
| O=C(O)/C=C/c1ccc(O)c(O)c1 [CA, caffeic acid] |  | 211 |  |  |  | 129 |  |  |  |  |  |  |  | Stability, percent of nominal concentration [1, 21]: 108%; Stability, percent of nominal concentration ([1]; condition 3 4°C for 24 h, low concentration): 63%; Stability, percent of nominal concentration [1, 22]: 75%; Stability, percent of nominal concentration [2, 23]: 224%; Stability, percent of nominal concentration ([2]; condition 3 overnight storage at 4°C, medium concentration): 86%; AUC(0-12) ([3]; both, human, in vivo, po): 2.4 (0.6) ng/mL*hr; T1/2 ([3]; both, human, in vivo, po): 10.3 (3.7) hr; Tmax ([3]; both, human, in vivo, po): 4.5 (1.6) hr; AUC(0-t) ([3]; both, human, in vivo, po): 1.8 ng·h/mL; Cmax ([3]; both, human, in vivo, po, Cmax): 0.5 ng/mL; half-life ([3]; both, human, in vivo, po, T1/2): 8.4 h; Tmax ([3]; both, human, in vivo, po, Tmax): 5.3 h |
| COc1ccc(/C=C/C(=O)O)cc1O [IFA, isoferulic acid] |  |  | 65.9 (23.1) µg |  |  | 80 | 5.3 | 1.5 | 7 | 2.4 | 7.4 | 1.5 | 3.5 | Stability, percent of nominal concentration [1, 24]: 117%; Stability, percent of nominal concentration ([2]; condition 1 long-term storage at −80°C, high concentration): 84%; Stability, percent of nominal concentration [2, 12]: less than 115% |
| O=C(O)CCc1ccc(O)c(O)c1 [DHCA, Dihydrocaffeic acid] | 75 | 70 | 26.8 (10.0) µg | 24.8 (6.1) µg |  |  | 1.7 | 0.4 | 1.8 | 6.1 | 1.9 | 0.5 | 1.9 | Stability, percent of nominal concentration ([1]; condition 1 long-term storage at -80°C, medium concentration): 75%; Stability, percent of nominal concentration ([1]; condition 2 three freeze-thaw cycles, high concentration): 75%; Stability, percent of nominal concentration [1, 24]: 51%; Stability, percent of nominal concentration [1, 22]: 23%; Stability, percent of nominal concentration [2, 23]: 106%; Tmax [3, 20]: 3.2 h |
| COc1cc(CCC(=O)O)ccc1O [DHFA, Dihydroferulic acid] | 81 | 79 |  |  | 67 | 84 |  |  |  |  |  |  |  | Stability, percent of nominal concentration [1, 21]: 97%; AUC(0-12) ([3]; both, human, in vivo, po): 41.0 (12.7) ng/mL*hr; Cmax ([3]; both, human, in vivo, po): 8.1 (2.9) ng/mL; T1/2 ([3]; both, human, in vivo, po): 6.6 (3.8) hr; Tmax ([3]; both, human, in vivo, po): 5.7 (1.5) hr; AUC(0-t) ([3]; both, human, in vivo, po): 35.6 ng·h/mL; Cmax ([3]; both, human, in vivo, po, Cmax): 9.3 ng/mL; half-life ([3]; both, human, in vivo, po, T1/2): 7.1 h; Tmax ([3]; both, human, in vivo, po, Tmax): 5.9 h |
